From ChEMBL document CHEMBL1201862, “PubChem BioAssay data set” (2004)
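Method: 48-hour compound exposure of cells in 96-well plates, five concentrations, linear interpolation of endpoints. GI50 = concentration required for 50% inhibition of growth.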 Activity calls are given as the source filed them. Cut-off read from the data, not from the text of the source: active = GI50 up to about 1.1 µM and inactive = higher.

What was measured:
Assay in all cases: DTP human tumour cell line panel, 48 h
KM12 = test system: KM12
OVCAR-8 = test system: OVCAR-8
SK-MEL-5 = test system: SK-MEL-5
TK-10 = test system: TK-10
EKVX = test system: EKVX
SR = test system: SR
CAKI-1 = test system: CAKI-1
NCI-H226 = test system: NCI-H226
IGROV-1 = test system: IGROV-1
HL-60 = test system: HL-60
UO-31 = test system: UO-31
SNB-19 = test system: SNB-19
A549 = test system: A549
DMS-114 = test system: DMS-114
SN12C = test system: SN12C
SW-620 = test system: SW-620
MCF7 = test system: MCF7
T47D = test system: T47D
BT-549 = test system: BT-549
MDA-MB-231 = test system: MDA-MB-231

Measured: GI50

CN1CC[C@]2(C)c3ccc(O)cc3CC3CCCC1C32C (stereo partly specified)
inactive: KM12 > 100 µM | OVCAR-8 > 100 µM | SK-MEL-5 > 100 µM | TK-10 > 100 µM | EKVX > 100 µM | SR > 100 µM | CAKI-1 > 100 µM | NCI-H226 > 100 µM | IGROV-1 > 100 µM | HL-60 > 100 µM | UO-31 92.3 µM | SNB-19 > 100 µM | A549 > 100 µM | DMS-114 > 100 µM | SN12C > 100 µM

CCCCCCC(=O)C/C(CCC(=O)N(Cc1ccccc1)Cc1ccccc1)=N\NC(N)=O
inactive: KM12 > 100 µM | OVCAR-8 > 100 µM | SK-MEL-5 > 100 µM | TK-10 > 100 µM | EKVX > 100 µM | SR > 100 µM | CAKI-1 > 100 µM | NCI-H226 > 100 µM | IGROV-1 > 100 µM | HL-60 > 100 µM | SW-620 > 100 µM | UO-31 > 100 µM | SNB-19 > 100 µM | A549 > 100 µM | DMS-114 > 100 µM | SN12C > 100 µM

CC(C)(C)C(=O)OCC(COC(=O)C(C)(C)C)[N+](=O)[O-]
inactive: KM12 > 100 µM | OVCAR-8 > 100 µM | TK-10 > 100 µM | EKVX > 100 µM | SR 42.4 µM | CAKI-1 > 100 µM | NCI-H226 > 100 µM | IGROV-1 > 100 µM | HL-60 27.4 µM | SW-620 > 100 µM | UO-31 > 100 µM | SNB-19 > 100 µM | A549 > 100 µM | DMS-114 > 100 µM | SN12C > 100 µM

N#C/C(=C\c1ccc2[nH]ccc2c1)C(=O)NCCCCNC(=O)/C(C#N)=C/c1ccc2[nH]ccc2c1
inactive: KM12 > 31.6 µM | OVCAR-8 > 31.6 µM | SK-MEL-5 > 31.6 µM | TK-10 > 31.6 µM | EKVX > 31.6 µM | SR > 31.6 µM | CAKI-1 > 31.6 µM | NCI-H226 > 31.6 µM | IGROV-1 > 31.6 µM | HL-60 > 31.6 µM | SW-620 > 31.6 µM | UO-31 > 31.6 µM | SNB-19 > 31.6 µM | MCF7 > 10 µM | A549 > 100 µM | T47D > 10 µM | BT-549 > 10 µM | DMS-114 > 100 µM | SN12C > 31.6 µM | MDA-MB-231 > 10 µM
